Results taken from US20090312288A1 (TAKEDA PHARMACEUTICAL COMPANY LIMITED, priority 2008, published 2009).

The molecules below were run against Aurora B/INCENP (Homo sapiens, UniProt Q96GD4) (assay: Determination of inhibition of AIK: Aurora B/INCENP direct fluorescence polarization (IMAP) assay). Settings: 10 uM ATP, 0.8 nM Aurora B/INCENP; values given as bins; read-out: IC50 of Exemplified Compounds Against AIK B.
Type: biochemical

Chain of Aurora B/INCENP (Q96GD4 whole entry): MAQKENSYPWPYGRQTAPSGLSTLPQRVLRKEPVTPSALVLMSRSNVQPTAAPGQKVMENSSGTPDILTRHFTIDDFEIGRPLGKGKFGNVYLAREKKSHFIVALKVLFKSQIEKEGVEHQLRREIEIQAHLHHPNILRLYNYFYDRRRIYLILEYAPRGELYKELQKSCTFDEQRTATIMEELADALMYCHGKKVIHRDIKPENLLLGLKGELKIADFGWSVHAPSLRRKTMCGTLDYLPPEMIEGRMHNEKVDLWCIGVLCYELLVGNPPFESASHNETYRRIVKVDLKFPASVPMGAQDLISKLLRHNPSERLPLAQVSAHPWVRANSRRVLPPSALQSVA
Chain of Aurora B/INCENP (Q9NQS7 whole entry partner): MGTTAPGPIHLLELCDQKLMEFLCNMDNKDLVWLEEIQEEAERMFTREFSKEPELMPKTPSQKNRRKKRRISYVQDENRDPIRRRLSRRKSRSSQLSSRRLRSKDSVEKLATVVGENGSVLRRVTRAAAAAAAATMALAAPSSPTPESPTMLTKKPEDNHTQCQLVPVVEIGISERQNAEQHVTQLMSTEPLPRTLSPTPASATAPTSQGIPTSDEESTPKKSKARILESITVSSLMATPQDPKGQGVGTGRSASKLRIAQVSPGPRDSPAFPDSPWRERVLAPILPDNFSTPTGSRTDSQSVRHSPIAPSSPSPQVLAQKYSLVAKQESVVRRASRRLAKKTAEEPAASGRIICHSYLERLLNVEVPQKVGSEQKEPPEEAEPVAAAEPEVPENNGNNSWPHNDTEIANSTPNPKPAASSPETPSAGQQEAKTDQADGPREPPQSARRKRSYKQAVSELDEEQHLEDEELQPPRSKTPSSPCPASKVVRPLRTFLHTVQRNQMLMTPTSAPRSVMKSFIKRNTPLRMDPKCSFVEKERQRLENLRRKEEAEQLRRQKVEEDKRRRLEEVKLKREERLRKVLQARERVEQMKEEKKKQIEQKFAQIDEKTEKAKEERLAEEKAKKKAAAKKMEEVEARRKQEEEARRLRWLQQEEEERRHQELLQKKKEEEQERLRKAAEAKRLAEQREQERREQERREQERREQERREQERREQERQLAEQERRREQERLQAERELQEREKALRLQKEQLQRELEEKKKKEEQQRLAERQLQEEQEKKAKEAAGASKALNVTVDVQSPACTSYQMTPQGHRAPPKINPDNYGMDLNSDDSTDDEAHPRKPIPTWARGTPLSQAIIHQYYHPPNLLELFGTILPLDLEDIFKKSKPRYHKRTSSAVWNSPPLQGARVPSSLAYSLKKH

| Molecule | IC50 [nM] |
| --- | --- |
| CCS(=O)(=O)c1cccc(-c2cc(NC(=O)C3CCN(C(C)=O)CC3)c(OC)c3[nH]c4ncc(C)cc4c23)c1 [Compound 243, 1-acetyl-N-(5-(3-(ethylsulfonyl)phenyl)-8-methoxy-3-methyl-9H-pyrido[2,3-b]indol-7-yl)piperidine-4-carboxamide] | 8.6 to 13 |
| CCS(=O)(=O)c1cccc(-c2cc(N(C)C(=O)C3CC3)c(OC)c3[nH]c4ncc(C)cc4c23)c1 [Compound 253, N-(5-(3-(ethylsulfonyl)phenyl)-8-methoxy-3-methyl-9H-pyrido[2,3-b]indol-7-yl)-N-methylcyclopropanecarboxamide] | > 13 |
| CCS(=O)(=O)c1cccc(-c2ccc(OCCCn3cccc3)c3[nH]c4ncc(C)cc4c23)c1 [Compound 421, 8-(3-(1H-pyrrol-1-yl)propoxy)-5-(3-(ethylsulfonyl)phenyl)-3-methyl-9H-pyrido[2,3-b]indole] | > 13 |
| CCS(=O)(=O)c1cccc(-c2ccc(OCC3CCN(C)CC3)c3[nH]c4ncc(C)cc4c23)c1 [Compound 177, 5-(3-(ethylsulfonyl)phenyl)-3-methyl-8-((1-methylpiperidin-4-yl)methoxy)-9H-pyrido[2,3-b]indole] | 8.6 to 13 |
| CCS(=O)(=O)c1cccc(-c2cc(C(=O)NC3CCN(CCO)CC3)c(C)c3[nH]c4ncc(C)cc4c23)c1 [Compound 456, 5-(3-(ethylsulfonyl)phenyl)-N-(1-(2-hydroxyethyl)piperidin-4-yl)-3,8-dimethyl-9H-pyrido[2,3-b]indole-7-carboxamide] | 5.6 to 8.5 |
| CCS(=O)(=O)c1cccc(-c2ccc(OCCCN(CCO)CC(F)(F)F)c3[nH]c4ncc(C)cc4c23)c1 [Compound 340, 2-((3-(5-(3-(ethylsulfonyl)phenyl)-3-methyl-9H-pyrido[2,3-b]indol-8-yloxy)propyl)(2,2,2-trifluoroethyl)amino)ethanol] | > 13 |
| CCS(=O)(=O)c1cccc(-c2ccc(OCCCN3CCOCC3)c3[nH]c4ncc(C)cc4c23)c1 [Compound 440, 4-(3-(5-(3-(ethylsulfonyl)phenyl)-3-methyl-9H-pyrido[2,3-b]indol-8-yloxy)propyl)morpholine] | > 13 |
| CCS(=O)(=O)c1cccc(-c2cc(N(C)C(=O)CCN(C)C)c(OC)c3[nH]c4ncc(C)cc4c23)c1 [Compound 254, 3-(dimethylamino)-N-(5-(3-(ethylsulfonyl)phenyl)-8-methoxy-3-methyl-9H-pyrido[2,3-b]indol-7-yl)-N-methylpropanamide] | > 13 |
| CCS(=O)(=O)c1cccc(-c2cc(C(=O)NC3CCNCC3)c(C)c3[nH]c4ncc(C)cc4c23)c1 [Compound 451, 5-(3-(ethylsulfonyl)phenyl)-3,8-dimethyl-N-(piperidin-4-yl)-9H-pyrido[2,3-b]indole-7-carboxamide] | 8.6 to 13 |
| Cc1cnc2[nH]c3c(OCCCN(CCO)CC(F)(F)F)ccc(-c4cccc(S(=O)(=O)C5CC5)c4)c3c2c1 [Compound 339, 2-((3-(5-(3-(cyclopropylsulfonyl)phenyl)-3-methyl-9H-pyrido[2,3-b]indol-8-yloxy)propyl)(2,2,2-trifluoroethyl)amino)ethanol] | > 13 |
| CCS(=O)(=O)c1cccc(-c2cc(C(=O)N3CCN(C)CC3)c(C)c3[nH]c4ncc(C)cc4c23)c1 [Compound 93] | > 13 |
| c1ccc(-c2cccc3[nH]c4ncccc4c23)cc1 [Compound 5, 5-phenyl-9H-pyrido[2,3-b]indole] | > 13 |
| CCN1CCC(COc2ncc(-c3cccc(S(=O)(=O)CC)c3)c3c2[nH]c2ncc(C)cc23)CC1 [Compound 61, 5-(3-Ethanesulfonyl-phenyl)-8-(1-ethyl-piperidin-4-ylmethoxy)-3-methyl-9H-dipyrido[2,3-b;4′,3′-d]pyrrole] | 5.6 to 8.5 |
| Cc1cnc2[nH]c3c(OCC4CCN(C)CC4)ccc(-c4cccc(C(=O)NC5CC5)c4)c3c2c1 [Compound 178, N-cyclopropyl-3-(3-methyl-8-((1-methylpiperidin-4-yl)methoxy)-9H-pyrido[2,3-b]indol-5-yl)benzamide] | > 13 |
| CCS(=O)(=O)c1cccc(-c2cc(C(=O)N[C@@H]3CCCNC3)c(C)c3[nH]c4ncc(C)cc4c23)c1 [Compound 108, (R)-5-(3-(ethylsulfonyl)phenyl)-3,8-dimethyl-N-(piperidin-3-yl)-9H-pyrido[2,3-b]indole-7-carboxamide] | > 13 |
| c1ccc(Sc2cccc3[nH]c4ncccc4c23)cc1 [Compound 23, 5-(phenylthio)-9H-pyrido[2,3-b]indole] | > 13 |
| CCS(=O)(=O)c1cccc(-c2cc(C(=O)N3CCC(N(C)C)C3)cc3[nH]c4ncc(C)cc4c23)c1 (stereo not shown) [Compound 145, (3-Dimethylamino-pyrrolidin-1-yl)-[5-(3-ethanesulfonyl-phenyl)-3-methyl-9H-pyrido[2,3-b]indol-7-yl]-methanone] | > 13 |

Other lines, results leading:

| IC50 [nM] | Molecule |
| --- | --- |
| 4 to 5.5 | CCS(=O)(=O)c1cccc(-c2ccc(O[C@@H](C)CCO)c3[nH]c4ncc(C)cc4c23)c1 [Compound 389, (S)-3-(5-(3-(ethylsulfonyl)phenyl)-3-methyl-9H-pyrido[2,3-b]indol-8-yloxy)butan-1-ol] |
| 5.6 to 8.5 | CCOc1ncc(-c2cccc(S(=O)(=O)CC)c2)c2c1[nH]c1ncc(C)cc12 [Compound 51, 5-(3-Ethanesulfonyl-phenyl)-8-ethoxy-3-methyl-9H-dipyrido[2,3-b;4′,3′-d]pyrrole] |
| 5.6 to 8.5 | CCS(=O)(=O)c1cccc(-c2ccc(OCC3CCN(C)CC3)c3[nH]c4ncc(Cl)cc4c23)c1 [Compound 200, 3-chloro-5-(3-(ethylsulfonyl)phenyl)-8-((1-methylpiperidin-4-yl)methoxy)-9H-pyrido[2,3-b]indole] |
| 4 to 5.5 | CCS(=O)(=O)c1cccc(-c2ccc(OCCCN(C)C)c3[nH]c4ncc(Cl)cc4c23)c1 [Compound 220, 3-(3-chloro-5-(3-(ethylsulfonyl)phenyl)-9H-pyrido[2,3-b]indol-8-yloxy)-N,N-dimethylpropan-1-amine] |
| < 4 | CCN(CCCOc1ccc(-c2cccc(S(=O)(=O)CC)c2)c2c1[nH]c1ncc(Cl)cc12)CCOP(=O)(O)O [Compound 294, 2-((3-(3-chloro-5-(3-(ethylsulfonyl)phenyl)-9H-pyrido[2,3-b]indol-8-yloxy)propyl)(ethyl)amino)ethyl dihydrogen phosphate] |
| 5.6 to 8.5 | CCN(CCO)CCOc1ccc(-c2cccc(S(=O)(=O)C3CC3)c2)c2c1[nH]c1ncc(Cl)cc12 [Compound 323, 2-((2-(3-chloro-5-(3-(cyclopropylsulfonyl)phenyl)-9H-pyrido[2,3-b]indol-8-yloxy)ethyl)(ethyl)amino)ethanol] |
| 5.6 to 8.5 | CCS(=O)(=O)c1cccc(-c2cc(NC(=O)CCN(C)C)c(OC)c3[nH]c4ncc(C)cc4c23)c1 [Compound 240, 3-(dimethylamino)-N-(5-(3-(ethylsulfonyl)phenyl)-8-methoxy-3-methyl-9H-pyrido[2,3-b]indol-7-yl)propanamide] |
| 4 to 5.5 | CCS(=O)(=O)c1cccc(-c2cnc(OCCO)c3[nH]c4ncc(C)cc4c23)c1 [Compound 53, 2-[5-(3-Ethanesulfonyl-phenyl)-3-methyl-9H-dipyrido[2,3-b;4′,3′-d]pyrrol-8-yloxy]-ethanol] |
| 4 to 5.5 | CCN(CCO)CCCOc1ccc(-c2cccc(S(=O)(=O)C3CC3)c2)c2c1[nH]c1ncc(C)cc12 [Compound 270, 2-((3-(5-(3-(cyclopropylsulfonyl)phenyl)-3-methyl-9H-pyrido[2,3-b]indol-8-yloxy)propyl)(ethyl)amino)ethanol] |
| 5.6 to 8.5 | CCS(=O)(=O)c1cccc(-c2cc(C(=O)NCCOC)c(C)c3[nH]c4ncc(C)cc4c23)c1 [Compound 90, N-(2-(methoxy)ethyl)-5-(3-(ethylsulfonyl)phenyl)-3,8-dimethyl-9H-pyrido[2,3-b]indole-7-carboxamide] |
| < 4 | (3-chloro-5-(3-(ethylsulfonyl)phenyl)-9H-pyrido[2,3-b]indol-8-ol [Compound 219] |
| 5.6 to 8.5 | CCS(=O)(=O)c1cccc(-c2ccc(OCC3CCN(C)CC3)c3[nH]c4ncc(F)cc4c23)c1 [Compound 287, 5-(3-(ethylsulfonyl)phenyl)-3-fluoro-8-((1-methylpiperidin-4-yl)methoxy)-9H-pyrido[2,3-b]indole] |
| 4 to 5.5 | CCS(=O)(=O)c1cccc(-c2ccc(OCCCO)c3[nH]c4ncc(C)cc4c23)c1 [Compound 217, 3-(5-(3-(ethylsulfonyl)phenyl)-3-methyl-9H-pyrido[2,3-b]indol-8-yloxy)propan-1-ol] |
| 5.6 to 8.5 | CCS(=O)(=O)c1cccc(-c2ccc(O[C@H](C)CO)c3[nH]c4ncc(C)cc4c23)c1 [Compound 212, (R)-2-(5-(3-(ethylsulfonyl)phenyl)-3-methyl-9H-pyrido[2,3-b]indol-8-yloxy)propan-1-ol] |
| < 4 | CCS(=O)(=O)c1cccc(-c2ccc(OCC#N)c3[nH]c4ncc(C)cc4c23)c1 [Compound 209, 2-(5-(3-(ethylsulfonyl)phenyl)-3-methyl-9H-pyrido[2,3-b]indol-8-yloxy)acetonitrile] |
| 4 to 5.5 | CCN(CC)C(=O)c1cccc(-c2ccc(OC)c3[nH]c4ncc(C)cc4c23)c1 [Compound 165, N,N-diethyl-3-(8-methoxy-3-methyl-9H-pyrido[2,3-b]indol-5-yl)benzamide] |
| < 4 | CCS(=O)(=O)c1cccc(-c2ccc(OCCCO)c3[nH]c4ncc(Cl)cc4c23)c1 [Compound 291, 3-(3-chloro-5-(3-(ethylsulfonyl)phenyl)-9H-pyrido[2,3-b]indol-8-yloxy)propan-1-ol] |
| 4 to 5.5 | CCS(=O)(=O)c1cccc(-c2cc(C(=O)OC)c(Cl)c3[nH]c4ncc(C)cc4c23)c1 [Compound 150, 8-Chloro-5-(3-ethanesulfonyl-phenyl)-3-methyl-9H-pyrido[2,3-b]indole-7-carboxylic acid methyl ester] |
| 4 to 5.5 | CCS(=O)(=O)c1cccc(-c2cc(C(=O)O)cc3[nH]c4ncc(C)cc4c23)c1 [Compound 140, 5-(3-Ethanesulfonyl-phenyl)-3-methyl-9H-pyrido[2,3-b]indole-7-carboxylic acid] |
| < 4 | CNS(=O)(=O)c1cccc(-c2ccc(C)c3[nH]c4ncc(C)cc4c23)c1 [Compound 15, 3-(3,8-dimethyl-9H-pyrido[2,3-b]indol-5-yl)-N-methylbenzenesulfonamide] |
